Results: ChEMBL document CHEMBL6115030, “Systematic All-Hydrocarbon Stapling Analysis for Cecropin A Generates a Potent and Stable Antimicrobial Peptide” (J Med Chem, 2025)
Converted amounts (≈) assume the structure as drawn. The source made the active and inactive calls. The rule behind the calls is not given here. Bridge positions count the residues as written; N and C are the ends. Square brackets hold non-standard residues; d marks the D form. Peptide text beside a SMILES is read from it. S5 = C=CCCC[C@](C)(N)C(=O)O

What was measured:
[1] = Toxicity in C57BL/6 mouse assessed as death at 50 mg/kg, ip measured on day 4; format: organism-based; settings: in vivo, 96 h, time 4 day
Escherichia coli [2] = test: In vivo antibacterial activity against Escherichia coli intraperitoneally injected into C57BL/6 mouse peritonitis model assessed as reduction in bacterial load in liver at 2.5 mg/kg, ip measured after 48 hrs relative to control; format: functional, organism-based
[3] = Toxicity in C57BL/6 mouse assessed as increase in body weight at 25 mg/kg, ip measured during 14 days of study; format: organism-based; settings: in vivo, 336 h, time 14 day
Mus musculus [4] = test: In vivo anti-inflammatory efficacy in Escherichia coli intraperitoneally injected into C57BL/6 mouse peritonitis model assessed as reduction in IL-1beta level in blood at 2.5 mg/kg, ip measured after 48 hrs by ELISA; format: functional, organism-based
Escherichia coli [5] = test: Induction of outer membrane synthesis related pathways in Escherichia coli assessed as change in OmpG gene expression at 12.5 uM measured after 2 hrs incubation by PCR analysis; format: functional, organism-based
Escherichia coli [6] = test: In vivo antibacterial activity against Escherichia coli intraperitoneally injected into C57BL/6 mouse peritonitis model assessed as reduction in bacterial load in blood at 2.5 mg/kg, ip measured after 48 hrs relative to control; format: functional, organism-based
Escherichia coli [7] = test: Induction of multiple envelope stress pathway related pathways in Escherichia coli assessed as change in WcaL gene expression at 12.5 uM measured after 2 hrs incubation by PCR analysis; format: functional, organism-based
Escherichia coli [8] = test: Induction of multiple envelope stress pathway related pathways in Escherichia coli assessed as change in WcaC gene expression at 12.5 uM measured after 2 hrs incubation by PCR analysis; format: functional, organism-based
Escherichia coli [9] = test: In vivo antibacterial activity against Escherichia coli intraperitoneally injected into C57BL/6 mouse peritonitis model assessed as mouse survival at 2.5 mg/kg, ip measured after 48 hrs relative to control; format: functional
Escherichia coli [10] = test: Induction of metabolism related pathways in Escherichia coli assessed as lipid metabolism pathway mRNAs at 12.5 uM measured after 2 hrs incubation by PCR analysis; format: functional, organism-based
Escherichia coli [11] = test: In vivo antibacterial activity against Escherichia coli intraperitoneally injected into C57BL/6 mouse peritonitis model assessed as reduction in bacterial load in kidney at 2.5 mg/kg, ip measured after 48 hrs relative to control; format: functional, organism-based
Escherichia coli [12] = test: Induction of outer membrane synthesis related pathways in Escherichia coli assessed as change in OmpX gene expression at 12.5 uM measured after 2 hrs incubation by PCR analysis; format: functional, organism-based
Escherichia coli [13] = test: Induction of assembly related pathways in Escherichia coli assessed as change in BamD gene expression at 12.5 uM measured after 2 hrs incubation by PCR analysis; format: functional, organism-based
Pseudomonas aeruginosa [14] = test: Antibacterial activity against Pandrug-resistant Pseudomonas aeruginosa assessed as inhibition of bacterial growth measured after 24 hrs by broth microdilution method; format: functional
Escherichia coli [15] = test: Induction of assembly related pathways in Escherichia coli assessed as change in BamB gene expression at 12.5 uM measured after 2 hrs incubation by PCR analysis; format: functional, organism-based
Escherichia coli [16] = test: Induction of outer membrane synthesis related pathways in Escherichia coli assessed as change in OmpC gene expression at 12.5 uM measured after 2 hrs incubation by PCR analysis; format: functional, organism-based
Escherichia coli [17] = test: Induction of LPS transport pathway related genes in Escherichia coli assessed as change in LptG gene expression at 12.5 uM measured after 2 hrs incubation by PCR analysis; format: functional, organism-based
Escherichia coli [18] = test: Induction of LPS transport pathway related genes in Escherichia coli assessed as change in LptE gene expression at 12.5 uM measured after 2 hrs incubation by PCR analysis; format: functional, organism-based
Escherichia coli [19] = test: Induction of assembly related pathways in Escherichia coli assessed as change in OmpW gene expression at 12.5 uM measured after 2 hrs incubation by PCR analysis; format: functional, organism-based
Escherichia coli [20] = test: Induction of LPS transport pathway related genes in Escherichia coli assessed as change in LptA gene expression at 12.5 uM measured after 2 hrs incubation by PCR analysis; format: functional, organism-based
Staphylococcus aureus = test: Antibacterial activity against Staphylococcus aureus ATCC 25923 assessed as inhibition of bacterial growth measured after 24 hrs by broth microdilution method; format: functional
Pseudomonas aeruginosa [21] = test: Antibacterial activity against Pseudomonas aeruginosa PAO1 assessed as inhibition of bacterial growth measured after 24 hrs by broth microdilution method; format: functional
Acinetobacter baumannii = test: Antibacterial activity against Pandrug-resistant Acinetobacter baumannii assessed as inhibition of bacterial growth measured after 24 hrs by broth microdilution method; format: functional
Escherichia coli [22] = test: In vivo antibacterial activity against Escherichia coli intraperitoneally injected into C57BL/6 mouse peritonitis model assessed as reduction in bacterial load in spleen at 2.5 mg/kg, ip measured after 48 hrs relative to control; format: functional, organism-based
[23] = Toxicity in C57BL/6 female mouse assessed as haemorrhagic point and blurred white pulp boundary in liver at 25 mg/kg, ip measured during 14 days of study by H and E staining based analysis; format: organism-based; settings: in vivo, 336 h, time 14 day
Cell membrane [24] = test: Induction of Outer membrane damage in Escherichia coli assessed as increase in NPN intensity at 5 uM measured after 24 hrs incubation by microplate reader based outer membrane permeability assay; format: subcellular
Mus musculus [25] = test: In vivo anti-inflammatory efficacy in Escherichia coli intraperitoneally injected into C57BL/6 mouse peritonitis model assessed as reduction in TNF-alpha level in blood at 2.5 mg/kg, ip measured after 48 hrs by ELISA; format: functional, organism-based
Cell membrane [26] = test: Induction of Outer membrane damage in Escherichia coli assessed as pore formation and surface rupture at 5 uM measured after 24 hrs by SEM imaging analysis; format: subcellular
[27] = Stability of the compound in human serum assessed as remaining peptide by RP-HPLC analysis; format: ADME, cell-free
Escherichia coli [28] = test: Induction of LPS transport pathway related genes in Escherichia coli assessed as change in LptB gene expression at 12.5 uM measured after 2 hrs incubation by PCR analysis; format: functional, organism-based
Cell membrane [29] = test: Induction of Inner membrane damage in Escherichia coli assessed as increase in […] ONPG intensity at 5 uM measured after 24 hrs incubation by microplate reader based inner membrane permeability assay; format: subcellular
Escherichia coli [30] = test: Antibacterial activity against Escherichia coli assessed as reduction in CFU at 5 uM measured upto 60 mins by Time-killing assay; format: functional, organism-based
Shigella flexneri = test: Antibacterial activity against Shigella flexneri 301 assessed as inhibition of bacterial growth measured after 24 hrs by broth microdilution method; format: functional
Escherichia coli [31] = test: Induction of multiple envelope stress pathway related pathways in Escherichia coli assessed as change in FimA gene expression at 12.5 uM measured after 2 hrs incubation by PCR analysis; format: functional, organism-based
Klebsiella pneumoniae [32] = test: Antibacterial activity against Carbapenem-resistant Klebsiella pneumoniae assessed as inhibition of bacterial growth measured after 24 hrs by broth microdilution method; format: functional
[33] = Hemolytic activity in human RBC assessed as hemolysis incubated for 1 hr by microplate reader; format: toxicity, cell-based, Erythrocyte; settings: erythrocyte, 1 h
Klebsiella pneumoniae [34] = test: Antibacterial activity against Klebsiella pneumoniae ATCC 13883 assessed as inhibition of bacterial growth measured after 24 hrs by broth microdilution method; format: functional
[35] = Toxicity in C57BL/6 female mouse assessed as juxtaglomerular cells and interstitial fibrous tissues in kidney at 25 mg/kg, ip measured during 14 days of study by H and E staining based analysis; format: organism-based; settings: in vivo, 336 h, time 14 day

SMILES: CC[C@H](C)[C@H](NC(=O)CNC(=O)[C@H](CC(=O)O)NC(=O)[C@H](CCCNC(=N)N)NC(=O)[C@@H](NC(=O)[C@H](CC(N)=O)NC(=O)[C@H](CCC(N)=O)NC(=O)CNC(=O)[C@@H](NC(=O)[C@H](CCCCN)NC(=O)[C@H](CCC(=O)O)NC(=O)[C@@H](NC(=O)[C@H](CCCCN)NC(=O)[C@H](CCCCN)NC(=O)[C@H](Cc1ccccc1)NC(=O)[C@H](CC(C)C)NC(=O)[C@H](CCCCN)NC(=O)[C@H](Cc1c[nH]c2ccccc12)NC(=O)[C@H](CCCCN)NC(C)=O)[C@@H](C)CC)C(C)C)[C@@H](C)CC)C(=O)N[C@H](C(=O)N[C@@H](CCCCN)C(=O)N[C@@H](C)C(=O)NCC(=O)N1CCC[C@H]1C(=O)N[C@@H](C)C(=O)N[C@H](C(=O)N[C@@H](C)C(=O)N[C@H](C(=O)N[C@H](C(=O)NCC(=O)N[C@@H](CCC(N)=O)C(=O)N[C@@H](C)C(=O)N[C@@]1(C)CCC/C=C\CCC[C@@](C)(C(N)=O)NC(=O)[C@H](C)NC(=O)[C@H]([C@@H](C)CC)NC(=O)[C@H](CCC(N)=O)NC1=O)C(C)C)C(C)C)C(C)C)[C@@H](C)CC (Ac-KWKLFKKIEKVGQNIRDGIIKAGPAVAVVGQA[S5]QIA[S5]-NH2; staple (Z) 33-37)
- Activity [1]: Toxic
- Activity (Escherichia coli [2]): Active; Compound Showed Enhanced Bacterial Elimination Than Cec-0 And Compound Showed Comparable Bacterial Elimination To Polymyxin B
- Activity [3]: Toxic
- Activity (Mus musculus [4]): Active
- Activity (Escherichia coli [5]): Active
- Activity (Escherichia coli [6]): Active; Compound Showed Enhanced Bacterial Elimination Than Cec-0 And Compound Showed Comparable Bacterial Elimination To Polymyxin B
- Activity (Escherichia coli [7]): Active
- Activity (Escherichia coli [8]): Active
- Activity (Escherichia coli [9]): 67%
- Activity (Escherichia coli [10]): Active
- Activity (Escherichia coli [11]): Active; Compound Showed Enhanced Bacterial Elimination Than Cec-0 And Compound Showed Comparable Bacterial Elimination To Polymyxin B
- Activity (Escherichia coli [12]): Active
- Activity (Escherichia coli [13]): Active
- MIC (Pseudomonas aeruginosa [14]): 12.5 µM (≈ 50.8 µg/mL)
- Activity (Escherichia coli [15]): Active
- Activity (Escherichia coli [16]): Active
- Activity (Escherichia coli [17]): Active
- Activity (Escherichia coli [18]): Active
- Activity (Escherichia coli [19]): Active
- Activity (Escherichia coli [20]): Active
- MIC (Staphylococcus aureus): 3.13 µM (≈ 12.7 µg/mL)
- MIC (Pseudomonas aeruginosa [21]): 6.25 µM (≈ 25.4 µg/mL)
- MIC (Acinetobacter baumannii): < 0.78 µM
- Activity (Escherichia coli [22]): Active; Compound Showed Enhanced Bacterial Elimination Than Cec-0
- Activity [23]: Non-toxic
- Activity (Cell membrane [24]): Active
- Activity (Mus musculus [25]): Active
- Activity (Cell membrane [26]): Active
- Stability [27]: > 50%
- Activity (Escherichia coli [28]): Active
- Activity (Cell membrane [29]): Active
- Activity (Escherichia coli [30]): Active
- MIC (Shigella flexneri): 1.56 µM (≈ 6.34 µg/mL)
- Activity (Escherichia coli [31]): Active
- MIC (Klebsiella pneumoniae [32]): 6.25 µM (≈ 25.4 µg/mL)
- Activity [33]: Non-toxic
- MIC (Klebsiella pneumoniae [34]): 3.13 µM (≈ 12.7 µg/mL)
- Activity [35]: Non-toxic
